Common to all, as to test: NCI tumour cell line growth inhibition, 48 h
Experiment [1] has as its system SNB-78 CNS.
The subject of experiment [2] is HOP-18 NSCLC.
Experiment [3] relates to LXFL 529 NSCLC.
Experiment [4] relates to M19-MEL melanoma.
Experiment [5] has as its system KM20L2 colon.
Experiment [6] relates to RXF-631 renal.
The subject of experiment [7] is DLD-1 colon.
Experiment [8] deals with BT-549 breast.
Experiment [9] relates to P388 leukemia.
Experiment [10] deals with P388/ADR leukemia.
Experiment [11] relates to SN12K1 renal.
Experiment [12] has as its system MDA-N.

For 16 compounds, TGI results are on record in PubChem BioAssay (NCI).

Structures are written as SMILES.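 Where inhibition never reached the appropriate level, the endpoint shown equals the highest concentration tested. Otherwise, values were interpolated linearly from a five-concentration, 48-hour dose response in 96-well plates. At the TGI there is no net growth.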

For the compound `CCOC(=O)CCn1[nH]c(=O)c(Cl)c(Cl)c1=O`, the TGI in experiment [1], in [2], in [3], in experiment [4], in [5] and in [6] was more than 100 µM throughout. This compound showed a TGI in experiment [7] of more than 100 µM.
With `Nc1ncn(C2CC(O)C(CO)O2)c(=O)n1` (configuration not stated), the TGI in experiment [8] was more than 178 µM; in experiment [9] it was 142 µM; in [1] it was more than 375 µM; in experiment [2] it was more than 260 µM; in experiment [10] it was 226 µM; in [4], more than 375 µM. Further, the TGI was more than 375 µM in experiment [11], 7.2 µM in experiment [12], more than 375 µM in experiment [5] and more than 375 µM in [7].
Regarding `O=C(Nc1ccc(Cl)cc1Cl)C(=O)C(C(=O)c1ccncc1)C1OC(=O)c2ccccc21` (configuration not stated), the TGI in experiment [1], in experiment [2], in experiment [3], in [4], in experiment [5] and in experiment [6] was more than 100 µM throughout. For the same compound, in experiment [7], the TGI was more than 100 µM.
For the compound `c1cc2c(ncc3cscc32)s1`, the TGI in [1], in [3], in experiment [4], in experiment [12], in experiment [6] and in [7] was more than 100 µM in each case.
For `Cc1[nH]c2ccccc2c1C1Cc2ccccc2N1C(=O)/C(Cl)=C/c1ccccc1` (configuration not stated), the TGI in [1], in [2], in experiment [3], in experiment [4], in [5] and in [6] was more than 100 µM each time. This compound gave a TGI in experiment [7] of more than 100 µM.
`CN(C)C(c1ccccc1)C(O)c1ccccc1` (configuration not stated): the TGI in experiment [1], in [2], in experiment [3], in experiment [4], in [5] and in [6] was more than 100 µM each time. In experiment [7], this compound gave a TGI of more than 100 µM.
Turning to `CS(=O)(=O)c1cc(=O)c2ccccc2s1`, the TGI is 35.6 µM in experiment [8]; 14 µM in experiment [1]; 3.02 µM in [3]; 18.3 µM in experiment [4]; 16.2 µM in experiment [12]; 28.2 µM in [5]. The values for the TGI in experiment [6] and in experiment [7] were 21.3 µM and 4.21 µM, respectively.
`Fc1ccc(C2SCc3nc4ccccc4n32)cc1Cl` (configuration not stated): the TGI is more than 100 µM in experiment [1]; 57.8 µM in [3]; 37.1 µM in [4]; more than 100 µM in [5]; more than 100 µM in experiment [6]; more than 100 µM in [7].
Turning to `Cc1ccc(-c2cc(=O)c3cc(C)c(C)c(C(=O)O)c3o2)cc1C`, the TGI in [1], in experiment [2], in experiment [3], in [4], in experiment [5] and in [6] was more than 100 µM throughout. Further, the TGI in experiment [7] is more than 100 µM.
On to `N#CCc1ccc(C(C#N)/C(CCCC(=O)Nc2cccc([N+](=O)[O-])c2)=N/NC(N)=S)cc1` (configuration not stated), for which the TGI in experiment [1], in experiment [2], in [3], in experiment [5], in experiment [6] and in [7] was more than 100 µM throughout.
`O=c1[nH]c(=O)n(C2OC(CO)C(O)C(O)C2O)cc1F` (configuration not stated): the TGI in [8], in [1], in [2], in [3], in experiment [4] and in experiment [12] was more than 100 µM throughout. For the same compound, the TGI in [5] and in experiment [7] was more than 100 µM each time.
In the case of `CC(=O)N1C/C(=C\c2ccc(N(C)C)cc2)C(=O)/C(=C/c2ccc(N(C)C)cc2)C1`, the TGI in experiment [1], in experiment [2], in experiment [3], in experiment [4], in experiment [5] and in experiment [6] was more than 100 µM each time. The compound also displayed a TGI in experiment [7] of more than 100 µM.
Consider `COc1ccc(/C(Cl)=C(\C=O)c2ccc([N+](=O)[O-])cc2)cc1`, for which the TGI in experiment [1] is 50.1 µM; in experiment [2], more than 100 µM; in experiment [3], more than 27.6 µM; in experiment [5] it was 41.8 µM; in [6] it was 68.3 µM; in experiment [7], 63.1 µM.
For `FC(F)(F)c1nc(-c2ccccc2)oc1Sc1nnc(Sc2oc(-c3ccccc3)nc2C(F)(F)F)s1`, the TGI was more than 74 µM in [1]; more than 100 µM in experiment [2]; more than 64.6 µM in experiment [3]; more than 57.8 µM in experiment [4]; more than 100 µM in [5]; more than 84.1 µM in experiment [6]. The compound also gave a TGI in [7] of more than 100 µM.
`CC1=N/C(=C\c2cccc([N+](=O)[O-])c2)C(=O)O1`: the TGI in experiment [1], in [2], in experiment [3], in [4], in experiment [5] and in experiment [7] was more than 100 µM throughout.
As to `CC(C)c1ccc(C(c2ccc(OCC(=O)O)cc2)c2ccc(C(C)C)cc(=O)c2O)c(O)c(=O)c1`, the TGI is 56.7 µM in experiment [1]; 55.6 µM in experiment [2]; more than 100 µM in [3]; 69.9 µM in experiment [4]; more than 100 µM in experiment [5]; 31.3 µM in [6]. The TGI in [7] worked out at 21.3 µM.
